Laboratory results published in patent US20200261463A1, “TREATMENT OF CANCER USING ARYL DIHYDRO-2H-BENZO[B][1,4]OXAZINE SULFONAMIDE COMPOUNDS” (Lycera Corporation, priority 2017, published 2020).

System: bladder cancer
Assay: Administration of Compound A to human patient suffering from bladder cancer (CT imaging)
Format: in vivo
Conditions: 450 mg orally two times per day for two months

SMILES: CC(C)(C[C@H]1CN(S(=O)(=O)c2cccc(C(F)(F)F)c2)c2cc(-c3cc(F)cc(OC(F)F)c3)ccc2O1)C(=O)O [Compound A]
- reduction in bladder cancer burden compared to burden at start of treatment: 24%
